Values quoted from earlier work, collected in patent US20240065995A1, “INJECTABLE METHODS TO TREAT DEFICIENCIES IN GLUTATHIONE METABOLISM AND HOMOCYSTINURIA” (priority 2022, published 2024).

Settings: glutathione in the bloodstream; background statement

Question: For N[C@@H](CCC(=O)N[C@@H](CS)C(=O)NCC(=O)O)C(=O)O [Glutathione], which “half-life in the bloodstream” value is on record?
Answer: Its value is “under 2 minutes”.
